Source: PubChem BioAssay (NCI)
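In this assay, cells in 96-well plates receive the compound at five concentrations for 48 hours. Endpoints are linearly interpolated between the surrounding concentrations. GI50 marks 50% less growth. Definition used: TGI = concentration required for complete inhibition of growth.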

Key:
Experiment in all cases: growth of human tumour cells (NCI), 48 h
SF-268 CNS = test system: SF-268 CNS
SR leukemia = test system: SR leukemia
NCI-H226 lung = test system: NCI-H226 lung
HOP-62 NSCLC = test system: HOP-62 NSCLC
OVCAR-4 ovarian = test system: OVCAR-4 ovarian
SW-620 colon = test system: SW-620 colon
786-0 renal = test system: 786-0 renal
UACC-257 melanoma = test system: UACC-257 melanoma
ACHN renal = test system: ACHN renal
TK-10 renal = test system: TK-10 renal
SK-OV-3 ovarian = test system: SK-OV-3 ovarian
CCRF-CEM leukemia = test system: CCRF-CEM leukemia
HS 578T breast = test system: HS 578T breast
HOP-92 NSCLC = test system: HOP-92 NSCLC
MOLT-4 leukemia = test system: MOLT-4 leukemia
RXF 393 renal = test system: RXF 393 renal
MCF7 breast = test system: MCF7 breast
K-562 leukemia = test system: K-562 leukemia
HT29 colon = test system: HT29 colon
HL-60(TB) leukemia = test system: HL-60(TB) leukemia
A549 NSCLC = test system: A549 NSCLC
LOX IMVI melanoma = test system: LOX IMVI melanoma
SF-295 CNS = test system: SF-295 CNS
HCT-15 colon = test system: HCT-15 colon
OVCAR-8 ovarian = test system: OVCAR-8 ovarian
NCI-H23 lung = test system: NCI-H23 lung
OVCAR-3 ovarian = test system: OVCAR-3 ovarian
HCT-116 colon = test system: HCT-116 colon
NCI-H460 lung = test system: NCI-H460 lung
DU-145 prostate = test system: DU-145 prostate
SK-MEL-5 melanoma = test system: SK-MEL-5 melanoma
A498 renal = test system: A498 renal
HCC-2998 colon = test system: HCC-2998 colon
NCI-H522 lung = test system: NCI-H522 lung
SNB-75 CNS = test system: SNB-75 CNS
MDA-MB-435 = test system: MDA-MB-435
T-47D breast = test system: T-47D breast
BT-549 breast = test system: BT-549 breast
CAKI-1 renal = test system: CAKI-1 renal
SK-MEL-2 melanoma = test system: SK-MEL-2 melanoma
KM12 colon = test system: KM12 colon
MALME-3M melanoma = test system: MALME-3M melanoma
EKVX NSCLC = test system: EKVX NSCLC
MDA-MB-231 breast = test system: MDA-MB-231 breast
RPMI-8226 leukemia = test system: RPMI-8226 leukemia
U251 CNS = test system: U251 CNS
SNB-19 CNS = test system: SNB-19 CNS
UO-31 renal = test system: UO-31 renal
SK-MEL-28 melanoma = test system: SK-MEL-28 melanoma
NCI/ADR-RES ovarian = test system: NCI/ADR-RES ovarian
M14 melanoma = test system: M14 melanoma
OVCAR-5 ovarian = test system: OVCAR-5 ovarian
PC-3 prostate = test system: PC-3 prostate
COLO 205 colon = test system: COLO 205 colon
SF-539 CNS = test system: SF-539 CNS
UACC-62 melanoma = test system: UACC-62 melanoma

COc1cnc2c(c1)C(=O)c1c-2n(CCCN2CCC(O)CC2)c(=O)c2cc(Cl)ccc12
GI50 (SF-268 CNS): 211 nM
TGI (SF-268 CNS): 2340 nM
GI50 (SR leukemia): 88.8 nM
TGI (SR leukemia): 13200 nM
GI50 (NCI-H226 lung): 662 nM
TGI (NCI-H226 lung): 23600 nM
GI50 (HOP-62 NSCLC): 94.2 nM
TGI (HOP-62 NSCLC): 17100 nM
GI50 (OVCAR-4 ovarian): 1340 nM
TGI (OVCAR-4 ovarian): 3080 nM
GI50 (SW-620 colon): 253 nM
TGI (SW-620 colon): 2620 nM
GI50 (786-0 renal): 280 nM
TGI (786-0 renal): 1360 nM
GI50 (UACC-257 melanoma): 12200 nM
TGI (UACC-257 melanoma): 26200 nM
GI50 (ACHN renal): 90.3 nM
TGI (ACHN renal): 1500 nM
GI50 (TK-10 renal): 13000 nM
TGI (TK-10 renal): 28700 nM
GI50 (SK-OV-3 ovarian): 341 nM
TGI (SK-OV-3 ovarian): 17500 nM
GI50 (CCRF-CEM leukemia): 66 nM
TGI (CCRF-CEM leukemia): > 100000 nM
GI50 (HS 578T breast): 14100 nM
TGI (HS 578T breast): 37500 nM
GI50 (HOP-92 NSCLC): 15500 nM
TGI (HOP-92 NSCLC): 34800 nM
GI50 (MOLT-4 leukemia): 74.5 nM
TGI (MOLT-4 leukemia): 5340 nM
GI50 (RXF 393 renal): 347 nM
TGI (RXF 393 renal): 1720 nM
GI50 (MCF7 breast): 42.2 nM
TGI (MCF7 breast): 1540 nM
GI50 (K-562 leukemia): 1430 nM
TGI (K-562 leukemia): 6340 nM
GI50 (HT29 colon): 590 nM
TGI (HT29 colon): 2430 nM
GI50 (HL-60(TB) leukemia): 929 nM
TGI (HL-60(TB) leukemia): 4320 nM
GI50 (A549 NSCLC): 480 nM
TGI (A549 NSCLC): 2340 nM
GI50 (LOX IMVI melanoma): 75.8 nM
TGI (LOX IMVI melanoma): 1460 nM
GI50 (SF-295 CNS): 165 nM
TGI (SF-295 CNS): 1670 nM
GI50 (HCT-15 colon): 1170 nM
TGI (HCT-15 colon): 2550 nM
GI50 (OVCAR-8 ovarian): 665 nM
TGI (OVCAR-8 ovarian): 3530 nM
GI50 (NCI-H23 lung): 248 nM
TGI (NCI-H23 lung): 1740 nM
GI50 (OVCAR-3 ovarian): 1400 nM
TGI (OVCAR-3 ovarian): 3030 nM
GI50 (HCT-116 colon): 98.7 nM
TGI (HCT-116 colon): 2180 nM
GI50 (NCI-H460 lung): 37.1 nM
TGI (NCI-H460 lung): 1270 nM
GI50 (DU-145 prostate): 279 nM
TGI (DU-145 prostate): 1710 nM
GI50 (SK-MEL-5 melanoma): 1920 nM
TGI (SK-MEL-5 melanoma): 20400 nM
GI50 (A498 renal): 704 nM
TGI (A498 renal): 21800 nM
GI50 (HCC-2998 colon): 1590 nM
TGI (HCC-2998 colon): 11100 nM
GI50 (NCI-H522 lung): 110 nM
TGI (NCI-H522 lung): 2020 nM
GI50 (SNB-75 CNS): 10400 nM
TGI (SNB-75 CNS): 24600 nM
GI50 (MDA-MB-435): 12900 nM
TGI (MDA-MB-435): 25700 nM
GI50 (T-47D breast): 656 nM
TGI (T-47D breast): 4690 nM
GI50 (BT-549 breast): 9900 nM
TGI (BT-549 breast): 25900 nM
GI50 (CAKI-1 renal): 72.9 nM
TGI (CAKI-1 renal): 15100 nM
GI50 (SK-MEL-2 melanoma): 17400 nM
TGI (SK-MEL-2 melanoma): 33400 nM
GI50 (KM12 colon): 1430 nM
TGI (KM12 colon): 3640 nM
GI50 (MALME-3M melanoma): 14100 nM
TGI (MALME-3M melanoma): 27900 nM
GI50 (EKVX NSCLC): 1840 nM
TGI (EKVX NSCLC): 5850 nM
GI50 (MDA-MB-231 breast): 1510 nM
TGI (MDA-MB-231 breast): 3120 nM
GI50 (RPMI-8226 leukemia): 947 nM
TGI (RPMI-8226 leukemia): 5190 nM
GI50 (U251 CNS): 90.4 nM
TGI (U251 CNS): 1700 nM
GI50 (SNB-19 CNS): 243 nM
TGI (SNB-19 CNS): 3460 nM
GI50 (UO-31 renal): 271 nM
TGI (UO-31 renal): 1590 nM
GI50 (SK-MEL-28 melanoma): 16700 nM
TGI (SK-MEL-28 melanoma): 35700 nM
GI50 (NCI/ADR-RES ovarian): 167 nM
TGI (NCI/ADR-RES ovarian): 2310 nM
GI50 (M14 melanoma): 91.4 nM
TGI (M14 melanoma): 1860 nM
GI50 (OVCAR-5 ovarian): 1630 nM
TGI (OVCAR-5 ovarian): 3430 nM
GI50 (PC-3 prostate): 1460 nM
TGI (PC-3 prostate): 3560 nM
GI50 (COLO 205 colon): 661 nM
TGI (COLO 205 colon): 2640 nM
GI50 (SF-539 CNS): 433 nM
TGI (SF-539 CNS): 1640 nM
GI50 (UACC-62 melanoma): 191 nM
TGI (UACC-62 melanoma): 13700 nM
